The target of this experiment is T1, human VR1 (Homo sapiens, UniProt Q8NER1).
T1 construct: expressed in transfected cells
T1 sequence (Q8NER1 whole entry): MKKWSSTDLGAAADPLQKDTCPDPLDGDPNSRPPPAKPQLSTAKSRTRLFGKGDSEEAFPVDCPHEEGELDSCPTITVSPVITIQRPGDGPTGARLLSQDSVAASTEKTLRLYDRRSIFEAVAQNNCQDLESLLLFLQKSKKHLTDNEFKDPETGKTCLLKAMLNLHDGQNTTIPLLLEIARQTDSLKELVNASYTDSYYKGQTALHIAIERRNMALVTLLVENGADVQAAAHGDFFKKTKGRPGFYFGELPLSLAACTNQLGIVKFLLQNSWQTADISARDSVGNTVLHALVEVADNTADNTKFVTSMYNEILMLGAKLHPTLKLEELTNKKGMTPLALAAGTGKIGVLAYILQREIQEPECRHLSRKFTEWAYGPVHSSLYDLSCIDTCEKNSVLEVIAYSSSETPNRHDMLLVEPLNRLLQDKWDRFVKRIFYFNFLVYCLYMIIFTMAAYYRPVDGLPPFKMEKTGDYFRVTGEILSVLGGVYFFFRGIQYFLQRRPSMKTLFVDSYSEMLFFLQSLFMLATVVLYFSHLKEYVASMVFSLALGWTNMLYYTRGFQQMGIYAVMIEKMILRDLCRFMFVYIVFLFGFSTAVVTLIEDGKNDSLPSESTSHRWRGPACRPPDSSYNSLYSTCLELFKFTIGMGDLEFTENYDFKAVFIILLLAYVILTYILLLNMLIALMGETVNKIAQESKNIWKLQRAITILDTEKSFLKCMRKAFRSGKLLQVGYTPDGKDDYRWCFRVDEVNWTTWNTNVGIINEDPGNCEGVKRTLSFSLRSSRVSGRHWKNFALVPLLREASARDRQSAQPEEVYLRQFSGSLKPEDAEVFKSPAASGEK
The experiment in a line: Inhibition of Ca2+ entry in cells caused by proton, in rat glioma (C6BU1) cells stably expressing human VR1 (Fura 2 fluorescence). To be noted: inhibition of proton-induced Ca2+ entry. The class given is cell-based. As to the method:
The assay for evaluation of VR1 inhibition by the inventive compounds will be described below. The assay was intended to evaluate in vitro inhibition of Ca^2+ entry in cells caused by proton, one of the VR1 agonists.
Rat glioma (C6BU1) cells stably expressing human VR1 were suspended in 20 mM MES buffer (at pH 6.8, contg. 20 mM 2-morpholinoethanesulfonate (referred to as MES hereinafter), 115 mM NaCl, 5 mM KCl, 1 mM MgCl2 and 14 mM D-glucose) to make a cell density of 1×10^6 cells/mL. A fluorescent dye, Fura 2-AMsolution (DojindoCorporate, Cat. No. 343-05401) was added to the suspension to make a 5 μM concentration thereof. Further, Pluronic F-127 (Wako Pure Chemical Industries, Ltd., Cat. No. P6866) was added to make a 0.1% content thereof. Then, the suspension was incubated at 37° C. for 30 min. The cells were harvested and washed three times with 20 mM MES buffer. The cells were suspended again to make a cell density of 5×10^5 cells/mL. A 500-μL portion of the suspension was taken with a cuvette (MC MEDICAL, INC., Cat. No. SSR3121), to which 10 μL of 20 mM MES buffer containing 250 mM CaCl2 was added to incorporate Ca^2+ into the cells. At the same time, 5 μL of a test compound solution (in a range of 100 μM to 10 nM in DMSO) was also added to provide a final concentration thereof in a range of 1 μM to 0.1 nM. Alternatively, 5 μL of DMSO was added as control to provide a final concentration of 1% DMSO. The suspension was set in an intracellular ionometer (CAF-110; JASCO) 10 min after those additions. The cells were stimulated with protons by addition of 60 μL of 20 mM MES buffer at pH 1.1 to the suspension to set its pH at 5.5. The activity of the test compound was determined as a difference between the minimum of fluorescence intensity before agonist stimulation and its maximum after the stimulation. The value of IC50 was derived from percentage of inhibition by the test compound compared with the control.
In the tables, the symbol “++” indicates an IC50 value less than 100 nM and the symbol “+” indicates an IC50 value of 100 nM to 1,000 nM inclusive.
Turning to `O=C(Nc1ccc2cccnc2c1)c1cccc2c1OCCN2c1ncccc1Cl` [Example 1-032], the IC50 fell in the range of 100 to 1000 nM.
In the case of `O=C(Nc1ccc2c(c1)OCO2)c1cccc2c1OCCN2c1ncc(CO)cc1Cl` [Example 2-01, N-(benzo[1,3]dioxol-5-yl)-4-(3-chloro-5-hydroxymethylpyridin-2-yl)-3,4-dihydro-2H-benzo[1,4]oxazine-8-carboxamide] it was 100 to 1000 nM; in that of `CC(O)c1cnc(N2CCOc3c(C(=O)Nc4ccc(C(F)(F)F)cc4)cccc32)c(Cl)c1` (centres unmarked) [Example 1-130], less than 100 nM.
Under `O=C(Nc1ccc(C(F)(F)F)cc1)c1cccc2c1OCCN2c1ccc(O)cn1` [Example 1-146] stands less than 100 nM.
`CC(C)COc1ccc(NC(=O)c2cccc3c2OCCN3c2ccc(CO)cn2)cc1` [Example 2-08, 4-(5-hydroxymethylpyridin-2-yl)-N-(4-isobutyloxyphenyl)-3,4-dihydro-2H-benzo[1,4]oxazine-8-carboxamide] returned an IC50 of less than 100 nM.
Compound `Cc1cnc(N2c3cccc(C(=O)Nc4ccc(Br)c(F)c4)c3OC[C@@H]2CO)s1` [Example 6-7] registered an IC50 of less than 100 nM.
`O=C(Nc1ccc(OC(F)(F)F)cc1)c1cccc2c1OC[C@@H](CO)N2c1ncccc1Cl` [Example 4-01, (R)-4-(3-chloropyridin-2-yl)-3-hydroxylmethyl-N-(4-trifluoromethoxyphenyl)-3,4-dihydro-2H-benzo[1,4]oxazine-8-carboxamide] gave an IC50 of 100 to 1000 nM.
In the case of `Cc1nc(N2c3cccc(C(=O)Nc4ccc(OC(F)(F)F)cc4)c3OC[C@@H]2CO)sc1C` [Example 6-13, (S)-4-(4,5-dimethylthiazol-2-yl)-3-hydroxymethyl-N-(4-trifluoromethoxyphenyl)-3,4-dihydro-2H-benzo[1,4]oxazine-8-carboxamide] it was less than 100 nM; in that of `O=C(Nc1cc(C(F)(F)F)cc(C(F)(F)F)c1)c1cccc2c1OCCN2c1ncc(CO)cc1Cl` [Example 2-29], less than 100 nM; in that of `O=C(Nc1ccc(OC(F)(F)F)cc1)c1cccc2c1OC[C@H](CO)N2c1ccc(Cl)cc1` [Example 7-07], less than 100 nM.
Under `COC1CCN(c2ccc(NC(=O)c3cccc4c3OCCN4c3ccc(C)cn3)cc2F)CC1` [Example 1-169] stands less than 100 nM; under `COC(C)(C)c1ccc(NC(=O)c2cccc3c2OCCN3c2ccc(C)cn2)cc1` [Example 1-082], less than 100 nM; under `Cc1cnc(N2c3cccc(C(=O)Nc4ccc(N5CCOCC5)c(F)c4)c3OC[C@@H]2CO)s1` [Example 6-9], less than 100 nM.
`COc1cccnc1N1CCOc2c(C(=O)Nc3ccc(C(C)(C)C)cc3)cccc21` [Example 1-151] gave an IC50 of less than 100 nM.
For `COc1ccc(NC(=O)c2cccc3c2OCCN3c2ncccc2Cl)cc1` [Example 1-023], the IC50 was 100 to 1000 nM.
Under `Cc1ccc(N2c3cccc(C(=O)Nc4ccc(OCC(C)C)c(C(F)(F)F)c4)c3OC[C@@H]2CO)nc1` [Example 4-45] stands less than 100 nM; under `CCOc1ccc(N2CCOc3c(C(=O)Nc4ccc(C(F)(F)F)cc4)cccc32)nc1` [Example 1-144], less than 100 nM.
In turn, `O=C(Nc1ccc(Cl)c(Cl)c1)c1cccc2c1OCCN2c1ncc(CO)cc1Cl` [Example 2-40] came in with an IC50 of less than 100 nM.
The compound `Cc1ccc(N2c3cccc(C(=O)Nc4ccc(Cl)cc4)c3OC[C@@H]2CO)nc1` [Example 4-48] had an IC50 of less than 100 nM.
`CC(C)(C)c1ccc(NC(=O)c2cccc3c2OCCN3c2cc(Cl)ccn2)cc1` [Example 1-148] registered an IC50 of less than 100 nM.
`CNC(=O)[C@H]1COc2c(C(=O)Nc3ccc(C(F)(F)F)cc3)cccc2N1c1ncccc1Cl` [Example 1-234] had an IC50 of less than 100 nM.
In the case of `O=C(O)c1cnc(N2CCOc3c(C(=O)Nc4ccc(C(F)(F)F)cc4)cccc32)c(Cl)c1` [Example 1-136] it was less than 100 nM; in that of `CC(C)COc1ccc(NC(=O)c2cccc3c2OC[C@H](CO)N3c2ncccc2Cl)cc1C(F)(F)F` [Example 4-33], less than 100 nM.

Broadly, the IC50 is the point on the concentration scale where inhibition reaches its midpoint.

The record behind these values is patent US8008292B2, “Condensed benzamide compounds and inhibitors of vanilloid receptor subtype 1 (VR1) activity” (Japan Tobacco Inc., priority 2004, dated 2011).
